Patent US8067422B2, “Crystal form of phenylamino pyrimidine derivatives” (Natco Pharma Limited, priority 2008, dated 2011)

How the values were obtained:
[1] = test system: Baf3 murine leukemia cells (M351T); experiment: Blast cell count in nude mice implanted with Baf3 M351T cells; format: in vivo; conditions: Baf3M351T; Imatinib 10 mg/kg, AN019 20 mg/kg, AN024 20 mg/kg, oral gavage or ip; day 42
From the text: (§1) Blood smears were obtained via the tail vein or via the femoral vein every 6th day and blast cells counted and graphically represented.
(§2) Abdominal swelling and decrease in activity was monitored daily, blood smear taken via the tail vein or the femoral vein every 6th day and H&E stained as per standard protocols. 42 days after implantation, mice were sacrificed and spleens harvested.
(§3) Nude mice were intraperitoneally implanted with Baf3 mutant cells (wt, T315I, M351T or E255K). […] Blood was drawn from the femoral vein or tail vein every 6th day and blast cell count determined and graphically represented.

U87 glioma cells [2] = experiment: Matrigel invasion assay (modified Boyden chamber), U87; format: cell-based; conditions: U87
Method: (§4) The in vitro invasiveness of 4910, 5310 and U87 glioma cells and MDAMB231 and ZR71 breast cancer cells in the presence of specified concentrations of compounds were assessed using a modified Boyden chamber assay. Cells were treated with these compounds for 48 h. 1×10^6 cells were suspended in 600 μl of serum-free medium supplemented with 0.2% BSA and placed in the upper compartment of the transwell chambers (Corning Costar Fischer Scientific Cat #07-200-158, Pittsburgh Pa.) coated with Matrigel (0.7 mg/ml). The lower compartment of the chamber was filled with 200 μl of serum medium and the cells were allowed to migrate for 24 h. After incubation, the cells were fixed and stained with Hema-3 and quantified as previously described (Mohanam et al. 1993). The migrated cells were imaged microscopically to determine the reduction in invasiveness induced by the compounds of this invention.

K562 cells = experiment: Anti-CML activity in nude mice implanted with K562 cells (leukemia growth index); format: in vivo; conditions: ip injections
From the text: Nude mice (nu/nu) were implanted with K562 cells (1×10^6) via tail vein.
Blood was drawn via the tail vein. Quantitative analysis of LGI was graphically represented.

5310 glioma cells [3] = experiment: Matrigel invasion assay (modified Boyden chamber), 5310; format: cell-based; conditions: 5310
Method: as §4

[4] = test system: MDAMB231 breast cancer cells; experiment: In vitro angiogenic assay, MDA-MB-231 conditioned media on human dermal endothelial cells; format: cell-based; conditions: MDA-MB-231 cells
Method: (§5) The in vitro angiogenesis of 4910, 5310 and U87 glioma cells and MDAMB231 and ZR71 breast cancer cells in the presence of specified concentrations of compounds were determined as follows, cells (2×10^4/well) were seeded in 8-well chamber slides and were treated with various concentrations of test compounds. After a 24 h incubation period, the conditioned media was removed and added to a 4×10^4 human dermal endothelial cell (monolayer in 8-well chamber slides) and the human dermal endothelial cells were allowed to grow for 72 h. Cells were then fixed in 3.7% formaldehyde and stained with H&E and photographed.

[5] = test system: K562 luc human leukemia cells; experiment: Luciferase expression in nude mice implanted with K562 luc cells, low dose oral administration; format: in vivo
Method: Five mice were used per group and divided into 24 groups+2 control. All groups were implanted with K562 normal/luc cells. Of the 24 groups, 12 were used for luciferase studies whereas the other 12 were used for blood smear count studies.
Drugs were administered by oral gavage (2% gum acacia and 2% SLS in an aqueous suspension).

ZR71 breast cancer cells = experiment: In vitro angiogenic assay, ZR-71 conditioned media on human dermal endothelial cells; format: cell-based; conditions: ZR-71 cells; radiation not distinguished
Method: as §5

U87 glioma cells [6] = experiment: In vitro angiogenic assay, U87 conditioned media on human dermal endothelial cells; format: cell-based
Method: as §5

[7] = test system: Baf3 murine leukemia cells (T315I); experiment: Blast cell count in nude mice implanted with Baf3 T315I cells; format: in vivo; conditions: Baf3T315I; Imatinib 10 mg/kg, AN019 20 mg/kg, AN024 20 mg/kg, oral gavage or ip; day 42
From the text: as §1, §2, §3

5310 glioma cells [8] = experiment: In vitro angiogenic assay, 5310 conditioned media on human dermal endothelial cells; format: cell-based; conditions: 5310 cells
Method: as §5

K562 = experiment: ED50 (po) in leukemic mice (K562)
4910 glioma cells = experiment: In vitro angiogenic assay, 4910 conditioned media on human dermal endothelial cells; format: cell-based; conditions: 4910 cells
Method: as §5

[9] = test system: pAKT and pERK in glioma and breast cancer cells; experiment: Western blot analysis, pAKT and pERK (cell line not specified); format: cell-based; conditions: both with and without radiation
Method: (§6) Western blot analysis of 4910, 5310 and U87 glioma cells and MDAMB231 and ZR71 breast cancer cells in the presence of specified concentrations of compounds were assessed as per standard protocols. Cells were treated with AN019, AN024 or Temozolomide at the specified concentrations. 24 h after treatment, cells were collected and cell lysates extracted. Equal quantities of proteins were fractionated by SDS-PAGE. The fractionated proteins were blotted on to nylon membranes and immunoprobed for AKT, ERK and Pi3k. Breast cancer cell protein isolates were additionally immunoprobed for EGFR, ErbB1, ErbB2 and ErbB3.

[10] = test system: AKT, ERK and Pi3k in ZR71 breast cancer cells; experiment: Western blot analysis, ZR71; format: cell-based
Method: as §6

[11] = test system: AKT, ERK and Pi3k in 5310 glioma cells; experiment: Western blot analysis, 5310; format: cell-based
Method: as §6

## Cc1ccc(NC(=O)c2cc(C(F)(F)F)cc(C(F)(F)F)c2)cc1Nc1nccc(-c2cccnc2)n1 [AN019, (3,5-bis trifluoromethyl)-N-[4-methyl-3-(4-pyridin-3yl-pyrimidin-2ylamino)-phenyl]-benzamide]
[1]
  Blast cell count in blood smears: significant decrease in blast cell count
U87 glioma cells [2]
  ±Change in invasion after radiation: 0%
K562 cells
  Physiological, phenotypic or behavioral abnormality: no abnormal physiological, phenotypic or behavioral abnormality
5310 glioma cells [3]
  ±Change in invasion after radiation: +1%
[4]; after radiation
  Inhibition of angiogenesis: slight inhibition
[4]; control condition (without radiation)
  Inhibition of angiogenesis: slight inhibition
[5]; 1 mg/kg
  Luciferase expression: did not induce a decrease in luciferase expression
[5]; 5 mg/kg
  Luciferase expression: fixation of leukemia cells at constant expression levels
[5]; 10 mg/kg
  Luciferase expression: decrease in luciferase expression
[5]; 20 mg/kg
  Luciferase expression: decrease in luciferase expression
ZR71 breast cancer cells
  Inhibition of angiogenesis: complete inhibition of angiogenesis
U87 glioma cells [6]; after radiation
  Inhibition of angiogenesis: significant retardation in angiogenesis
U87 glioma cells [6]; without radiation
  Inhibition of angiogenesis: significant retardation in angiogenesis
[7]
  Blast cell count in blood smears: significant decrease in blast cell count
5310 glioma cells [8]; after radiation
  Inhibition of angiogenesis: inhibition of angiogenesis was greater in control conditions than after radiation treatment
5310 glioma cells [8]; control conditions (without radiation)
  Inhibition of angiogenesis: inhibition of angiogenesis was greater in control conditions than after radiation treatment
K562; Leukemic mice (K562)
  Therapeutic index - LD50/ED50: 98.5
K562; Mus musculus, K562, po, read-out: ED50 (po) Mice
  ED50: 11.5 mg/kg
4910 glioma cells; after radiation
  Inhibition of angiogenesis: increase in angiogenic inhibition
4910 glioma cells; without radiation
  Inhibition of angiogenesis: inhibition of angiogenesis similar to MDA-MB-231 cells
[9]
  pERK levels (Western blot): reduced significantly
[10]; ZR71, after radiation
  AKT levels (Western blot): enhanced after radiation
[10]; ZR71, unirradiated
  AKT levels (Western blot): decrease in AKT levels
[10]; ZR71, with radiation
  PI3k levels (Western blot): absent
[10]; ZR71, without radiation
  PI3k levels (Western blot): absent
[11]; 5310
  AKT expression levels (Western blot): decrease in AKT expression levels
[11]; 5310, after radiation
  PI3k levels (Western blot): reappeared after radiation treatment
[11]; 5310, without radiation
  PI3k levels (Western blot): almost undetectable
